Reference: PubChem BioAssay AID1259407 (Chemical Carcinogenesis Research Information System (CCRIS), 2018)
The source made the active and inactive calls. No rule for the calls is given here.

Tested on: CCRIS mutagenicity, Ames/micronucleus/aberration tests
Assay: CCRIS mutagenicity studies
[1] = Test System: AMES SALMONELLA TYPHIMURIUM, Strain/Indicator: TA98, Metabolic Activation: NONE, Method: STANDARD PLATE
[2] = Test System: AMES SALMONELLA TYPHIMURIUM, Strain/Indicator: TA100, Metabolic Activation: NONE, Method: STANDARD PLATE

SMILES: CC(C)CN
- mutagenic call (Test System: AMES SALMONELLA TYPHIMURIUM, Strain/Indicator: TA98, Metabolic Activation: HAMSTER, LIVER, S-9, AROCLOR 1254 (10%), Method: PREINCUBATION): inactive; negative
- mutagenic call (Test System: AMES SALMONELLA TYPHIMURIUM, Strain/Indicator: TA98, Metabolic Activation: NONE, Method: PREINCUBATION): inactive; negative
- mutagenic call (Test System: AMES SALMONELLA TYPHIMURIUM, Strain/Indicator: TA98, Metabolic Activation: RAT, LIVER, S-9, AROCLOR 1254 (10%), Method: PREINCUBATION): inactive; negative
- mutagenic call (Test System: AMES SALMONELLA TYPHIMURIUM, Strain/Indicator: TA100, Metabolic Activation: HAMSTER, LIVER, S-9, AROCLOR 1254 (10%), Method: PREINCUBATION): inactive; negative
- mutagenic call (Test System: AMES SALMONELLA TYPHIMURIUM, Strain/Indicator: TA100, Metabolic Activation: NONE, Method: PREINCUBATION): inactive; negative
- mutagenic call (Test System: AMES SALMONELLA TYPHIMURIUM, Strain/Indicator: TA100, Metabolic Activation: RAT, LIVER, S-9, AROCLOR 1254 (10%), Method: PREINCUBATION): inactive; negative
- mutagenic call (Test System: AMES SALMONELLA TYPHIMURIUM, Strain/Indicator: TA1535, Metabolic Activation: HAMSTER, LIVER, S-9, AROCLOR 1254 (10%), Method: PREINCUBATION): inactive; negative
- mutagenic call (Test System: AMES SALMONELLA TYPHIMURIUM, Strain/Indicator: TA1535, Metabolic Activation: NONE, Method: PREINCUBATION): inactive; negative
- mutagenic call (Test System: AMES SALMONELLA TYPHIMURIUM, Strain/Indicator: TA1535, Metabolic Activation: RAT, LIVER, S-9, AROCLOR 1254 (10%), Method: PREINCUBATION): inactive; negative
- mutagenic call (Test System: AMES SALMONELLA TYPHIMURIUM, Strain/Indicator: TA1537, Metabolic Activation: HAMSTER, LIVER, S-9, AROCLOR 1254 (10%), Method: PREINCUBATION): inactive; negative
- mutagenic call (Test System: AMES SALMONELLA TYPHIMURIUM, Strain/Indicator: TA1537, Metabolic Activation: NONE, Method: PREINCUBATION): inactive; negative
- mutagenic call (Test System: AMES SALMONELLA TYPHIMURIUM, Strain/Indicator: TA1537, Metabolic Activation: RAT, LIVER, S-9, AROCLOR 1254 (10%), Method: PREINCUBATION): inactive; negative

SMILES: NNC(N)=O
- mutagenic call (End Point: IN VIVO MICRONUCLEUS, Test System: POLYCHROMATIC ERYTHROCYTES, Species: MOUSE, Strain/Sex: BALB/C/MALE, Route: IP INJECTION): inactive; negative
- mutagenic call (End Point: IN VIVO MICRONUCLEUS, Test System: POLYCHROMATIC ERYTHROCYTES, Species: MOUSE, Strain/Sex: CBA/MALE, Route: IP INJECTION): inactive; negative

SMILES: O=C1CCCN1c1ncc([N+](=O)[O-])s1
- mutagenic call [1]: active; positive
- mutagenic call [2]: inactive; negative

SMILES: Cc1ccc(C(=O)ON(OCc2ccccc2)C(=O)c2ccccc2)cc1
- mutagenic call [2]: active; positive
- mutagenic call (Test System: AMES SALMONELLA TYPHIMURIUM, Strain/Indicator: TA100, Metabolic Activation: RAT, S-9, AROCLOR, Method: STANDARD PLATE): active; positive

SMILES: [N-]=[N+]=NCc1ccccc1
- mutagenic call (End Point: IN VITRO CHROMOSOMAL ABERRATIONS, Test System: CHL CELLS, Metabolic Activation: NONE): inactive; negative
- mutagenic call (End Point: IN VITRO CHROMOSOMAL ABERRATIONS, Test System: CHL CELLS, Metabolic Activation: RAT, LIVER, S-9, SODIUM PHENOBARBITAL AND 5,6-BENZOFLAVONE): inactive; negative
- mutagenic call (Test System: AMES SALMONELLA TYPHIMURIUM, Strain/Indicator: TA100, Metabolic Activation: RAT, LIVER, S-9, PCB, Method: PREINCUBATION): active; positive

SMILES: O=c1[nH]c(=O)n([C@H]2C[C@H](O)[C@@H](CO)O2)cc1COO
- mutagenic call [2]: active; positive
- mutagenic call (Test System: AMES SALMONELLA TYPHIMURIUM, Strain/Indicator: TA102, Metabolic Activation: NONE, Method: STANDARD PLATE): active; positive

SMILES: CN(C)c1ccc2nc3ccc(=[N+](C)C)cc-3sc2c1
- mutagenic call (End Point: In vitro chromosomal aberrations, Test System: Chinese hamster ovary cells, Metabolic Activation: None): active; positive
- mutagenic call (End Point: In vitro chromosomal aberrations, Test System: Chinese hamster ovary cells, Metabolic Activation: Rat, Liver, S-9, Aroclor): active; positive
- mutagenic call (End Point: In vivo micronucleus, Test System: Bone marrow, Species: Mouse, Strain/Sex: B6C3F1/Male, Route: Intraperitoneal): inactive; negative
- mutagenic call (End Point: In vivo micronucleus, Test System: Peripheral blood normochromatic erythrocytes, Species: Mouse, Strain/Sex: B6C3F1/Female, Route: Oral): inactive; negative
- mutagenic call (End Point: In vivo micronucleus, Test System: Peripheral blood normochromatic erythrocytes, Species: Mouse, Strain/Sex: B6C3F1/Male, Route: Intraperitoneal): inactive; negative
- mutagenic call (End Point: In vivo micronucleus, Test System: Peripheral blood normochromatic erythrocytes, Species: Mouse, Strain/Sex: B6C3F1/Male, Route: Oral): inactive; negative
- mutagenic call (Test System: AMES SALMONELLA TYPHIMURIUM, Strain/Indicator: TA98, Metabolic Activation: HAMSTER, LIVER, S-9, AROCLOR 1254, Method: STANDARD PLATE): active; positive
- mutagenic call [1]: inactive; negative
- mutagenic call (Test System: AMES SALMONELLA TYPHIMURIUM, Strain/Indicator: TA98, Metabolic Activation: RAT, LIVER, S-9, AROCLOR 1254, Method: STANDARD PLATE): active; positive
- mutagenic call [2]: active; positive
- mutagenic call (Test System: AMES SALMONELLA TYPHIMURIUM, Strain/Indicator: TA100, Metabolic Activation: RAT, LIVER, S-9, AROCLOR 1254, Method: STANDARD PLATE): active; positive
- mutagenic call (Test System: Ames Salmonella typhimurium, Strain/Indicator: TA98, Metabolic Activation: Hamster, Liver, S-9, Aroclor 1254 (30%), Method: Standard plate): active; positive
- mutagenic call (Test System: Ames Salmonella typhimurium, Strain/Indicator: TA98, Metabolic Activation: None, Method: Preincubation): active; positive
- mutagenic call (Test System: Ames Salmonella typhimurium, Strain/Indicator: TA98, Metabolic Activation: None, Method: Standard plate): active; positive
- mutagenic call (Test System: Ames Salmonella typhimurium, Strain/Indicator: TA98, Metabolic Activation: Rat, Liver, S-9, Aroclor 1254 (10%), Method: Preincubation): active; positive
- mutagenic call (Test System: Ames Salmonella typhimurium, Strain/Indicator: TA98, Metabolic Activation: Rat, Liver, S-9, Aroclor 1254 (30%), Method: Standard plate): active; positive
- mutagenic call (Test System: Ames Salmonella typhimurium, Strain/Indicator: TA100, Metabolic Activation: Hamster, Liver, S-9, Aroclor 1254 (30%), Method: Standard plate): active; positive
- mutagenic call (Test System: Ames Salmonella typhimurium, Strain/Indicator: TA100, Metabolic Activation: None, Method: Preincubation): active; positive
- mutagenic call (Test System: Ames Salmonella typhimurium, Strain/Indicator: TA100, Metabolic Activation: None, Method: Standard plate): inactive; negative (ntp describes as equivocal)
- mutagenic call (Test System: Ames Salmonella typhimurium, Strain/Indicator: TA100, Metabolic Activation: Rat, Liver, S-9, Aroclor 1254 (10%), Method: Preincubation): active; positive
- mutagenic call (Test System: Ames Salmonella typhimurium, Strain/Indicator: TA100, Metabolic Activation: Rat, Liver, S-9, Aroclor 1254 (30%), Method: Standard plate): active; positive
- mutagenic call (Test System: E. coli, Strain/Indicator: WP uvrA/pKM101, Metabolic Activation: None, Method: Preincubation): active; positive
- mutagenic call (Test System: E. coli, Strain/Indicator: WP uvrA/pKM101, Metabolic Activation: Rat, Liver, S-9, Aroclor 1254 (10%), Method: Preincubation): active; positive
- mutagenic call (Test System: MOUSE LYMPHOMA, Strain/Indicator: L5178Y (TK+/TK-), Metabolic Activation: NONE, Method: SUSPENSION/PLATE): active; positive
- mutagenic call (Test System: MOUSE LYMPHOMA, Strain/Indicator: L5178Y (TK+/TK-), Metabolic Activation: RAT, LIVER, S-9, Method: SUSPENSION/PLATE): active; positive
- mutagenic call (Test System: Mouse lymphoma, Strain/Indicator: L5178Y (tk+/tk-), Metabolic Activation: None, Method: Suspension/plate): active; positive
- mutagenic call (Test System: Mouse lymphoma, Strain/Indicator: L5178Y (tk+/tk-), Metabolic Activation: Rat, Liver, S-9, Aroclor 1254, Method: Suspension/plate): active; positive

SMILES: C/C=C(/C(=C/C)c1ccc(O)cc1)c1ccc(O)cc1
- mutagenic call (End Point: IN VITRO CHROMOSOMAL ABERRATIONS, Test System: CHINESE HAMSTER CELL DON (22;XY), Metabolic Activation: NONE): active; positive (ploidy changes)
- mutagenic call [1]: inactive; negative
- mutagenic call (Test System: AMES SALMONELLA TYPHIMURIUM, Strain/Indicator: TA98, Metabolic Activation: RAT, LIVER, S-9, Method: STANDARD PLATE): inactive; negative
- mutagenic call [2]: inactive; negative; toxicity at 100 ug/plate
- mutagenic call (Test System: AMES SALMONELLA TYPHIMURIUM, Strain/Indicator: TA100, Metabolic Activation: RAT, LIVER, S-9, Method: STANDARD PLATE): inactive; negative; toxicity at 100 ug/plate
- mutagenic call (Test System: AMES SALMONELLA TYPHIMURIUM, Strain/Indicator: TA1535, Metabolic Activation: NONE, Method: STANDARD PLATE): inactive; negative; toxicity at 50 ug/plate
- mutagenic call (Test System: AMES SALMONELLA TYPHIMURIUM, Strain/Indicator: TA1535, Metabolic Activation: RAT, LIVER, S-9, Method: STANDARD PLATE): inactive; negative; toxicity at 100 ug/plate
- mutagenic call (Test System: AMES SALMONELLA TYPHIMURIUM, Strain/Indicator: TA1537, Metabolic Activation: NONE, Method: STANDARD PLATE): inactive; negative
- mutagenic call (Test System: AMES SALMONELLA TYPHIMURIUM, Strain/Indicator: TA1537, Metabolic Activation: RAT, LIVER, S-9, Method: STANDARD PLATE): inactive; negative
- mutagenic call (Test System: AMES SALMONELLA TYPHIMURIUM, Strain/Indicator: TA1538, Metabolic Activation: NONE, Method: STANDARD PLATE): inactive; negative
- mutagenic call (Test System: AMES SALMONELLA TYPHIMURIUM, Strain/Indicator: TA1538, Metabolic Activation: RAT, LIVER, S-9, Method: STANDARD PLATE): inactive; negative; toxicity at 100 ug/plate
